These results are taken from patent US20130017540A1, “IDENTIFICATION OF MUTATION TYPES ASSOCIATED WITH ACQUIRED RESISTANCE AND METHODS FOR USING SAME” (priority 2011, published 2013).

The test has as its system KCL-22 cells. As to the kind of experiment: Soft agar colony formation assay with imatinib. Type of test: cell-based. Particulars: 2.5 μM imatinib, one million KCL-22 cells per well, 3 weeks. Here is the method:
One million KCL-22 cells were seeded per well in triplicate and incubated for 3 weeks. Plates were then stained with 0.005% Crystal Violet for 1 hour, and colonies were scored by microscope.

For the compound `Cc1ccc(NC(=O)c2ccc(CN3CCN(C)CC3)cc2)cc1Nc1nccc(-c2cccnc2)n1` [imatinib], the “T315I mutation rate on soft agar, μ” value is recorded as 2.40 × 10^−4 T315I mutations incurred per BCR-ABL fusion gene. In addition, the “T315I mutation rate on soft agar, μ” value (listed as Imatinib) is reported as 2.40 × 10^−4 ± 2.89 × 10^−5 T315I mutations incurred per BCR-ABL fusion gene.
